According to paper PMC11594329, “Development of LAT1-Selective Nuclear Medicine Therapeutics Using Astatine-211” (International Journal of Molecular Sciences, 2024):
Entries after “also recorded” stand apart in the source; their conditions may differ.

Tests used:
[1] = Tissue distribution in ICR mice (normal animals); format: in vivo
Description: ICR mice (male, 5 weeks old) were purchased from Japan SLC (Shizuoka, Japan) and acclimated for one week prior to use. The doses in the distribution experiments were as follows: ^211At-AAMT-O-Me-L (0.407 ± 0.005 MBq/mouse, 31.64 ± 0.76 g, n = 6), ^211At-AAMT-O-Me-D (0.351 ± 0.004 MBq/mouse, 31.44 ± 0.94 g, n = 6), ^211At-AAMT-O-Et-L (0.685 ± 0.010 MBq/mouse, 24.14 ± 3.31 g, n = 6), ^211At-AAMT-O-Pr-L (1.09 ± 0.06 MBq/mouse, 26.33 ± 0.39 g, n = 6)

[2] = test system: PANC-1 cells; test: Uptake in PANC-1 cell line; format: cell-based; conditions: for Uptake of optical isomers: %ID/mg protein
Procedure: Each cell line was seeded in 24 wells at 1 × 10^5 cells/mL and allowed to become sub-confluent on the day of the experiment. Cells were washed with PBS (-) (Fujifilm Wako Pure Chemical, Osaka, Japan) prior to the addition of the compound, which was then replaced with uptake buffer. After treating the cells with the same dose, they were collected at predetermined time points. The cell dose was measured using a γ-counter (Wizard^2 2480; PerkinElmer, Waltham, MA, USA), and the protein content of the sample was determined. Protein content was measured using the BCA method, and the dose was corrected using the protein content (Protein Assay BCA kit, Fujifilm Wako Pure Chemical).
Figure 2 Comparison of uptake between the labeled compounds. (A) Relation between uptake ratio and LAT1 expression level. Uptake ratios were compared between LAT1-Tet/HEK293 cells. The Y-axis represents the uptake ratio, and the X-axis is concentration of Doxycycline (Dox) (TaKaRa Bio, Shiga, Japan). The collection time was 30 min after treatment. The expression of LAT1 increased with increasing amounts of Dox. (B) Comparison of uptake in PANC-1 cell line. The collection times were 0.5, 1, 5 and 10 min after treatment.
Figure 3 Comparison of intracellular uptake of […]-AAMT-O-Me L-isomer and ^211At-AAMT-O-Me D-isomer of ^211At-AAMT-O-Me. (A) Uptake in Mock/HEK293, LAT1/HEK293, and […] lines. (B) Uptake in PANC-1 cells. The y-axis represents %ID/mg protein. BCH: -Amino-2-norbornanecarboxylic acid. BCH was treated at 20 mM. ** p < 0.01, *** p < 0.001.
The PANC-1 cell line was obtained from the RIKEN Cell Bank and maintained in RPMI 1640 medium (Fujifilm Wako Pure Chemical, Osaka, Japan) supplemented with 10% inactivated fetal bovine serum (Thermo Fisher Scientific, Waltham, MA, USA). Mock/HEK293, LAT1/HEK293, and LAT2/HEK203 cells were kindly provided by Dr. Kanai. Cell lines controlling LAT1 expression were constructed using the Tet-on system. […]

## COc1ccc(C[C@](C)(N)C(=O)O)cc1[211At] [^211At-AAMT-O-Me-L, (S)-2-amino-3-(3-(astato-^211At)-4-methoxyphenyl)-2-methylpropanic acid]
[1]; 1 h after injection
  Tissue distribution, Bladder: 7.10 ± 1.15 %ID/g
  Tissue distribution, Blood: 1.57 ± 0.10 %ID/g
  Tissue distribution, Bone: 1.33 ± 0.16 %ID/g
  Tissue distribution, Brain: 0.32 ± 0.02 %ID/g
  Tissue distribution, Cecum: 0.85 ± 0.04 %ID/g
  Tissue distribution, Colon: 0.93 ± 0.13 %ID/g
  Tissue distribution, Heart: 2.01 ± 0.15 %ID/g
  Tissue distribution, Kidney: 2.47 ± 0.24 %ID/g
  Tissue distribution, Liver: 1.11 ± 0.10 %ID/g
  Tissue distribution, Lung: 6.42 ± 1.52 %ID/g
  Tissue distribution, Pancreas: 1.52 ± 0.17 %ID/g
  Tissue distribution, Salivary glands: 7.16 ± 1.54 %ID/g
  Tissue distribution, Small intestine: 1.82 ± 0.08 %ID/g
  Tissue distribution, Spleen: 5.01 ± 1.42 %ID/g
  Tissue distribution, Stomach: 13.65 ± 2.40 %ID/g
  Tissue distribution, Testis: 2.31 ± 0.04 %ID/g
  Tissue distribution, Thymus: 2.03 ± 0.50 %ID/g
  Tissue distribution, Thyroid: 13.12 ± 1.72 %ID/g
[1]; 3 h after injection
  Tissue distribution, Bladder: 0.10 ± 0.01 %ID/g
  Tissue distribution, Blood: 1.17 ± 0.24 %ID/g
  Tissue distribution, Bone: 0.53 ± 1.31 %ID/g
  Tissue distribution, Brain: 0.10 ± 0.02 %ID/g
  Tissue distribution, Cecum: 0.95 ± 0.11 %ID/g
  Tissue distribution, Colon: 0.80 ± 0.12 %ID/g
  Tissue distribution, Heart: 0.34 ± 0.02 %ID/g
  Tissue distribution, Kidney: 1.11 ± 0.15 %ID/g
  Tissue distribution, Liver: 2.57 ± 0.17 %ID/g
  Tissue distribution, Lung: 1.34 ± 0.32 %ID/g
  Tissue distribution, Pancreas: 0.19 ± 0.04 %ID/g
  Tissue distribution, Salivary glands: 1.77 ± 0.19 %ID/g
  Tissue distribution, Small intestine: 3.91 ± 0.20 %ID/g
  Tissue distribution, Spleen: 0.80 ± 0.19 %ID/g
  Tissue distribution, Stomach: 16.96 ± 1.89 %ID/g
  Tissue distribution, Testis: 0.52 ± 0.06 %ID/g
  Tissue distribution, Thymus: 0.14 ± 0.03 %ID/g
[1]; 3 h after injection, listed as L-Isomer
  Tissue distribution, Thyroid: 0.65 ± 0.16 %ID/g
[2]
  Uptake of optical isomers: taken up more
[2]; collection 0.5, 1, 5 and 10 min after treatment
  Time-dependent uptake: highest uptake; also recorded: significantly higher uptake than the seed compound

## COc1ccc(C[C@@](C)(N)C(=O)O)cc1[211At] [^211At-AAMT-O-Me-D]
[1]; 1 h after injection
  Tissue distribution, Bladder: 10.62 ± 8.22 %ID/g
  Tissue distribution, Blood: 1.90 ± 0.57 %ID/g
  Tissue distribution, Bone: 0.93 ± 0.35 %ID/g
  Tissue distribution, Brain: 0.15 ± 0.01 %ID/g
  Tissue distribution, Cecum: 0.47 ± 0.19 %ID/g
  Tissue distribution, Colon: 2.54 ± 1.55 %ID/g
  Tissue distribution, Heart: 3.20 ± 1.26 %ID/g
  Tissue distribution, Kidney: 1.48 ± 0.39 %ID/g
  Tissue distribution, Liver: 0.58 ± 0.11 %ID/g
  Tissue distribution, Lung: 2.84 ± 1.11 %ID/g
  Tissue distribution, Pancreas: 2.38 ± 1.36 %ID/g
  Tissue distribution, Salivary glands: 4.67 ± 1.03 %ID/g
  Tissue distribution, Small intestine: 2.66 ± 1.23 %ID/g
  Tissue distribution, Spleen: 2.92 ± 1.49 %ID/g
  Tissue distribution, Stomach: 6.34 ± 2.74 %ID/g
  Tissue distribution, Testis: 1.84 ± 0.23 %ID/g
  Tissue distribution, Thymus: 1.89 ± 0.90 %ID/g
  Tissue distribution, Thyroid: 8.06 ± 3.56 %ID/g
[1]; 3 h after injection
  Tissue distribution, Bladder: 0.19 ± 0.11 %ID/g
  Tissue distribution, Blood: 0.38 ± 0.16 %ID/g
  Tissue distribution, Bone: 0.28 ± 0.11 %ID/g
  Tissue distribution, Brain: 0.04 ± 0.00 %ID/g
  Tissue distribution, Cecum: 0.50 ± 0.23 %ID/g
  Tissue distribution, Colon: 0.95 ± 0.59 %ID/g
  Tissue distribution, Heart: 0.43 ± 0.20 %ID/g
  Tissue distribution, Kidney: 0.73 ± 0.15 %ID/g
  Tissue distribution, Liver: 1.34 ± 0.47 %ID/g
  Tissue distribution, Lung: 0.69 ± 0.28 %ID/g
  Tissue distribution, Pancreas: 0.42 ± 0.28 %ID/g
  Tissue distribution, Salivary glands: 0.96 ± 0.16 %ID/g
  Tissue distribution, Small intestine: 5.33 ± 2.18 %ID/g
  Tissue distribution, Spleen: 0.42 ± 0.14 %ID/g
  Tissue distribution, Stomach: 8.08 ± 3.50 %ID/g
  Tissue distribution, Testis: 0.31 ± 0.02 %ID/g
  Tissue distribution, Thymus: 0.18 ± 0.06 %ID/g
  Tissue distribution, Thyroid: 0.42 ± 0.20 %ID/g
[2]
  Uptake of optical isomers: taken up less
